According to the supplement of paper PMC10307832:

Assays:
Experiment in all cases: relative viability (nuclei count vs DMSO), 5 days (fraction); higher = more cells survive
Neratinib + Palbociclib = compound: CCOc1cc2ncc(C#N)c(Nc3ccc(OCc4ccccn4)c(Cl)c3)c2cc1NC(=O)/C=C/CN(C)C [Neratinib] + CC(=O)c1c(C)c2cnc(Nc3ccc(N4CCNCC4)cn3)nc2n(C2CCCC2)c1=O [Palbociclib] (partner 0.5 µM)
In short: (§1)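 A single step with final 0.05% Triton X-100, 1% formaldehyde and 1 ug/ml Hoechst fixed the cells and stained nuclei 5 days after treatment. Lung cancer cell lines in 1536-well plates had been treated by pin tool the day after seeding with one drug alone or a fixed anchor-drug dose plus five library-drug doses (not always all listed) in √10 steps, and nuclei were counted on 4× images. Relative viability is the ratio of nuclei in treated wells to nuclei in vehicle wells, taken as the median of duplicate plates.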

Neratinib + Bortezomib = compound: CCOc1cc2ncc(C#N)c(Nc3ccc(OCc4ccccn4)c(Cl)c3)c2cc1NC(=O)/C=C/CN(C)C [Neratinib] + CC(C)C[C@H](NC(=O)[C@H](Cc1ccccc1)NC(=O)c1cnccn1)B(O)O [Bortezomib] (partner 0.002 µM)
In short: as §1

Neratinib + Foretinib = compound: CCOc1cc2ncc(C#N)c(Nc3ccc(OCc4ccccn4)c(Cl)c3)c2cc1NC(=O)/C=C/CN(C)C [Neratinib] + COc1cc2c(Oc3ccc(NC(=O)C4(C(=O)Nc5ccc(F)cc5)CC4)cc3F)ccnc2cc1OCCCN1CCOCC1 [Foretinib] (partner 0.25 µM)
In short: as §1

Neratinib + Pictilisib = compound: CCOc1cc2ncc(C#N)c(Nc3ccc(OCc4ccccn4)c(Cl)c3)c2cc1NC(=O)/C=C/CN(C)C [Neratinib] + CS(=O)(=O)N1CCN(Cc2cc3nc(-c4cccc5[nH]ncc45)nc(N4CCOCC4)c3s2)CC1 [Pictilisib] (partner 1 µM)
In short: as §1

Row | Cell Line | relative viability (Neratinib + Palbociclib; first compound 0.01 µM) | relative viability (Neratinib + Palbociclib; first compound 0.03162 µM) | relative viability (Neratinib + Palbociclib; first compound 0.1 µM) | relative viability (Neratinib + Palbociclib; first compound 0.3162 µM) | relative viability (Neratinib + Palbociclib; first compound 1 µM) | relative viability (Neratinib + Bortezomib; first compound 0.01 µM) | relative viability (Neratinib + Bortezomib; first compound 0.03162 µM) | relative viability (Neratinib + Bortezomib; first compound 0.3162 µM) | relative viability (Neratinib + Bortezomib; first compound 1 µM) | relative viability (Neratinib + Foretinib; first compound 0.01 µM) | relative viability (Neratinib + Foretinib; first compound 0.03162 µM) | relative viability (Neratinib + Foretinib; first compound 0.1 µM) | relative viability (Neratinib + Foretinib; first compound 0.3162 µM) | relative viability (Neratinib + Foretinib; first compound 1 µM) | relative viability (Neratinib + Pictilisib; first compound 0.01 µM) | relative viability (Neratinib + Pictilisib; first compound 0.03162 µM) | relative viability (Neratinib + Pictilisib; first compound 0.1 µM) | relative viability (Neratinib + Pictilisib; first compound 0.3162 µM) | relative viability (Neratinib + Pictilisib; first compound 1 µM) | relative viability (Neratinib + Bortezomib; first compound 0.1 µM)
1 | HCC-366 | 0.418 | 0.464 | 0.353 | 0.431 | 0.211 | 1.16 | 1.13 | 1.01 | 1.07 | 0.971 | 0.961 | 0.844 | 0.856 | 1.03 | 0.174 | 0.149 | 0.101 | 0.137 | 0.112 | 
2 | HCC-827 | 0.503 | 0.509 | 0.513 | 0.194 | 0.15 | 1.05 | 1.07 | 1.13 | 0.376 | 1.17 | 1.11 | 0.934 | 0.186 | 0.173 | 0.872 | 0.88 | 0.73 | 0.623 | 0.219 | 0.876
3 | HOP-62 | 0.455 | 0.475 | 0.383 |  | 0.303 | 0.872 | 0.855 | 0.541 | 1 | 1.16 | 1.08 | 0.982 | 1.14 | 0.92 | 0.677 | 0.826 | 0.691 | 0.669 | 0.52 | 0.624
4 | IA-LM |  |  |  |  |  | 0.952 | 0.908 | 0.891 | 0.507 | 1.36 | 1.36 | 1.11 | 0.927 | 0.628 | 0.33 | 0.318 | 0.193 | 0.197 | 0.126 | 0.787
5 | LC-2-ad | 0.487 | 0.507 | 0.41 | 0.442 | 0.499 | 1 | 1.07 | 1 | 0.963 | 0.898 | 0.989 | 0.777 | 0.532 | 0.393 | 0.525 | 0.485 | 0.0712 | 0.249 | 0.162 | 0.866
6 | LCLC-97TM1 | 0.258 | 0.237 | 0.228 |  | 0.117 | 0.786 | 0.347 | 0.41 | 0.298 | 1.07 | 0.952 | 0.829 | 0.824 | 0.483 | 0.212 | 0.164 | 0.199 | 0.143 | 0.138 | 0.739
7 | LCLC-103H | 0.517 | 0.478 | 0.457 | 0.474 | 0.46 | 1.18 | 1.1 | 1.16 | 1.1 | 0.926 | 0.805 | 0.704 | 0.697 | 0.496 | 0.597 | 0.668 | 0.575 | 0.582 | 0.587 | 0.905
8 | LK-2 | 0.868 | 0.752 |  | 0.476 | 0.522 |  |  |  |  | 1.27 | 1.6 | 1.24 | 0.958 | 0.656 | 0.653 | 0.566 | 0.594 | 0.446 | 0.266 | 
9 | NCI-H358 | 0.143 | 0.112 | 0.125 | 0.12 | 0.129 |  |  |  |  | 0.613 | 0.478 | 0.339 | 0.154 | 0.103 | 0.302 | 0.336 | 0.231 | 0.295 | 0.228 | 
10 | NCI-H522 | 1.22 | 0.759 | 0.719 | 0.733 | 0.538 |  |  |  |  |  |  |  |  |  |  |  |  |  |  | 
11 | NCI-H596 |  |  |  |  |  |  | 1.32 | 1.08 | 0.843 | 0.89 | 0.986 |  | 0.798 | 0.622 | 0.374 | 0.417 | 0.35 | 0.4 | 0.329 | 1.12
12 | NCI-H1395 | 0.66 | 0.709 | 0.63 | 0.58 | 0.414 |  |  |  |  | 0.919 | 1.03 |  | 1.02 | 0.668 | 0.595 | 0.679 | 0.602 | 0.659 | 0.449 | 
13 | NCI-H1563 |  |  |  |  |  | 0.812 |  | 0.752 | 0.647 | 0.858 | 0.942 | 0.885 | 0.844 | 0.75 | 0.608 | 0.636 | 0.664 | 0.617 | 0.602 | 0.685
14 | NCI-H1648 | 0.29 | 0.265 | 0.231 | 0.26 | 0.337 |  |  |  |  |  |  |  |  |  |  |  |  |  |  | 
15 | NCI-H1703 |  |  |  |  |  | 0.335 | 0.345 | 0.233 | 0.18 | 0.447 | 0.318 | 0.356 | 0.327 | 0.218 | 0.23 | 0.224 | 0.244 | 0.201 | 0.212 | 0.394
16 | NCI-H1792 | 0.813 | 0.71 | 0.414 | 0.616 | 0.445 | 1.01 | 0.965 | 0.896 | 0.745 |  |  |  |  |  | 0.311 | 0.274 | 0.254 | 0.278 | 0.126 | 0.897
17 | NCI-H1793 | 0.257 | 0.276 | 0.239 | 0.241 | 0.23 |  |  |  |  | 0.723 |  | 0.408 | 0.338 | 0.32 | 0.31 | 0.361 | 0.319 | 0.339 | 0.275 | 
18 | NCI-H1944 | 0.365 | 0.32 | 0.264 | 0.241 | 0.247 |  |  |  |  | 0.878 | 0.929 |  | 0.599 | 0.327 | 0.387 | 0.341 | 0.193 | 0.31 | 0.266 | 
19 | NCI-H2170 | 0.361 | 0.352 | 0.199 | 0.144 | 0.151 |  |  |  |  | 1.04 | 1.07 | 0.909 | 0.303 | 0.27 | 0.314 | 0.253 | 0.206 | 0.189 | 0.256 | 
20 | NCI-H2342 | 0.52 | 0.493 | 0.534 |  | 0.454 |  |  |  |  | 1.08 | 0.993 | 0.891 | 0.703 | 0.525 |  |  |  |  |  | 
21 | SK-MES-1 | 0.3 | 0.327 | 0.329 | 0.281 | 0.247 |  |  |  |  | 0.97 | 0.985 | 0.735 | 0.832 | 0.375 | 0.347 | 0.338 | 0.238 | 0.207 | 0.177 | 
22 | SW 900 |  | 0.56 | 0.537 | 0.372 | 0.288 |  |  |  |  | 0.937 | 0.917 |  | 0.865 | 0.709 |  |  |  |  |  | 
